± gives the standard deviation of the averaged measurements.
Tests used:
[1] = tested on: A549-ACE2 infected with SARS-CoV-2; test: cell count relative to DMSO; higher = less toxic; details: 24 h
Caco-2 [2] = test: cell viability relative to DMSO; higher = less toxic; details: 72 h
Calu-3 [3] = test: as above; details: 72 h
HepG2 [4] = test: as above; details: 72 h
U2OS [5] = test: as above; details: 72 h
Vero E6 [6] = test: as above; details: 72 h
[7] = tested on: A549-ACE2 infected with SARS-CoV-2; test: SARS-CoV-2 infection rate relative to DMSO; higher = more infection; details: 24 h
A549-ACE2 [8] = test: phospholipidosis EC50; higher = less potent phospholipidosis inducer
A549-ACE2 [9] = test: drug-induced phospholipidosis relative to tamoxifen; higher = more phospholipidosis
[10] = tested on: A549-ACE2 infected with SARS-CoV-2; test: morphology score (similarity to uninfected cells); higher = more like uninfected cells; details: 24 h
Caco-2 [11] = test: relative viability EC50 (midpoint between 100% and the lowest measured viability); higher = less toxic; details: 72 h
Calu-3 [12] = test: as above; details: 72 h
HepG2 [13] = test: as above; details: 72 h
U2OS [14] = test: as above; details: 72 h
Vero E6 [15] = test: as above; details: 72 h
Caco-2 [16] = test: drug sensitivity score (DSS) for viability; higher = more toxic; extreme values may be limits of the assay; details: 72 h
Calu-3 [17] = test: as above; details: 72 h
HepG2 [18] = test: as above; details: 72 h
U2OS [19] = test: as above; details: 72 h
Vero E6 [20] = test: as above; details: 72 h

CC(CN1c2ccccc2Sc2ccccc21)N(C)C (stereo not drawn) [promethazine]
Details | SARS-CoV-2 infection rate [%] | cell count [%] | cell viability [%] | morphology score | phospholipidosis EC50 [µM]
A549-ACE2 [8], 24 h | – | – | – | – | 7.49
A549-ACE2 [8], 48 h | – | – | – | – | 9.37
A549-ACE2 [8], 72 h | – | – | – | – | 11.1
Caco-2 [2], 1 nM | – | – | 99.8 | – | –
Caco-2 [2], 10 nM | – | – | 99 | – | –
Caco-2 [2], 100 nM | – | – | 106 | – | –
Caco-2 [2], 1000 nM | – | – | 107 | – | –
Caco-2 [2], 10000 nM | – | – | 92.7 | – | –
Calu-3 [3], 1 nM | – | – | 112 | – | –
Calu-3 [3], 10 nM | – | – | 103 | – | –
Calu-3 [3], 100 nM | – | – | 98.6 | – | –
Calu-3 [3], 1000 nM | – | – | 103 | – | –
Calu-3 [3], 10000 nM | – | – | 96.1 | – | –
HepG2 [4], 1 nM | – | – | 119 | – | –
HepG2 [4], 10 nM | – | – | 96.4 | – | –
HepG2 [4], 100 nM | – | – | 78.1 | – | –
HepG2 [4], 1000 nM | – | – | 103 | – | –
HepG2 [4], 10000 nM | – | – | 83.3 | – | –
U2OS [5], 1 nM | – | – | 103 | – | –
U2OS [5], 10 nM | – | – | 108 | – | –
U2OS [5], 100 nM | – | – | 97.8 | – | –
U2OS [5], 1000 nM | – | – | 100 | – | –
U2OS [5], 10000 nM | – | – | 94.9 | – | –
Vero E6 [6], 1 nM | – | – | 101 | – | –
Vero E6 [6], 10 nM | – | – | 95.5 | – | –
Vero E6 [6], 100 nM | – | – | 99.4 | – | –
Vero E6 [6], 1000 nM | – | – | 102 | – | –
Vero E6 [6], 10000 nM | – | – | 80.5 | – | –
[1], 0.3 µM | – | 103 | – | – | –
[1], 3 µM | – | 112 | – | – | –
[1], 10 µM | – | 118 | – | – | –
[1], 30 µM | – | 115 | – | – | –
[7], 0.3 µM | 93 | – | – | – | –
[7], 3 µM | 51 | – | – | – | –
[7], 10 µM | 63 | – | – | – | –
[7], 30 µM | 11 | – | – | – | –
[10], 0.3 µM | – | – | – | 0.09 | –
[10], 3 µM | – | – | – | 0.72 | –
[10], 10 µM | – | – | – | 0.76 | –
[10], 30 µM | – | – | – | 0.72 | –

drug-induced phospholipidosis [%], A549-ACE2 [9]
Details | 0.3 µM | 0.833333 µM | 3.33333 µM | 6.66667 µM | 10 µM | 30 µM
24 h | 1.08 | 0.17 | 9.69 | 43.2 | 62.1 | 92
48 h | -0.1 | 0.2 | 6.54 | 31.9 | 55.6 | 96.7
72 h | 1.14 | 0.443 | 8.72 | 23.6 | 50.4 | 102

Details | drug sensitivity score | relative viability EC50 [µM]
Caco-2 [11] | – | > 10
Caco-2 [16] | 0 | –
Calu-3 [12] | – | > 10
Calu-3 [17] | 0 | –
HepG2 [13] | – | > 10
HepG2 [18] | 0.3 | –
U2OS [14] | – | > 10
U2OS [19] | 0 | –
Vero E6 [15] | – | > 10
Vero E6 [20] | 0.4 | –

CCOCC(O)COc1ccc(NC(=O)CC[S+](C)C)cc1 (stereo not drawn) [suplatast]
cell viability [%]
Details | Caco-2 [2] | Calu-3 [3] | HepG2 [4] | U2OS [5] | Vero E6 [6]
1 nM | 95.9 | 94.8 | 93.8 | 99.1 | 87.8
10 nM | 99 | 93.1 | 94.3 | 96.4 | 98.2
100 nM | 99.1 | 93.4 | 85 | 100 | 93.3
1000 nM | 98.5 | 102 | 91.2 | 100 | 94.8
10000 nM | 104 | 101 | 94.1 | 101 | 104

Details | drug sensitivity score | relative viability EC50 [µM]
Caco-2 [11] | – | > 10
Caco-2 [16] | 0 | –
Calu-3 [12] | – | > 10
Calu-3 [17] | 0 | –
HepG2 [13] | – | > 10
HepG2 [18] | 0 | –
U2OS [14] | – | > 10
U2OS [19] | 0 | –
Vero E6 [15] | – | > 10
Vero E6 [20] | 0 | –

CN1C(=O)C[C@@H](C(=O)N[C@@H](Cc2c[nH]cn2)C(=O)N2CCC[C@H]2C(N)=O)NC1=O [taltirelin]
cell viability [%]
Details | Caco-2 [2] | Calu-3 [3] | HepG2 [4] | U2OS [5] | Vero E6 [6]
1 nM | 101 | 96.3 | 106 | 105 | 99
10 nM | 100 | 94.7 | 99.6 | 96.2 | 96.8
100 nM | 97.2 | 101 | 99 | 99.5 | 104
1000 nM | 97.6 | 97.8 | 104 | 98.1 | 97.4
10000 nM | 95.9 | 84.9 | 108 | 101 | 98.3

Details | drug sensitivity score | relative viability EC50 [µM]
Caco-2 [11] | – | > 10
Caco-2 [16] | 0 | –
Calu-3 [12] | – | > 10
Calu-3 [17] | 0.5 | –
HepG2 [13] | – | > 10
HepG2 [18] | 0 | –
U2OS [14] | – | > 10
U2OS [19] | 0 | –
Vero E6 [15] | – | > 10
Vero E6 [20] | 0 | –

CCCCCCCCCCCCCCSCC(=O)O [tetradecylthioacetic-acid]
cell viability [%]
Details | Caco-2 [2] | Calu-3 [3] | HepG2 [4] | U2OS [5] | Vero E6 [6]
1 nM | 93.1 | 95.2 | 90.8 | 98.1 | 103
10 nM | 104 | 102 | 102 | 101 | 95.6
100 nM | 104 | 99.1 | 86.4 | 93.5 | 98.2
1000 nM | 83.9 | 108 | 102 | 97.2 | 99.2
10000 nM | 108 | 109 | 119 | 100 | 94.6

Details | drug sensitivity score | relative viability EC50 [µM]
Caco-2 [11] | – | > 10
Caco-2 [16] | 0 | –
Calu-3 [12] | – | > 10
Calu-3 [17] | 0 | –
HepG2 [13] | – | > 10
HepG2 [18] | 0 | –
U2OS [14] | – | > 10
U2OS [19] | 0 | –
Vero E6 [15] | – | > 10
Vero E6 [20] | 0 | –

c1ccc(C2CN3CCSC3=N2)cc1 (stereo not drawn) [tetramisole]
cell viability [%]
Details | Caco-2 [2] | Calu-3 [3] | HepG2 [4] | U2OS [5] | Vero E6 [6]
1 nM | 95 ± 7.1 | 98.7 ± 5 | 101.9 ± 0.14 | 99.8 ± 1.8 | 93.8 ± 2.8
10 nM | 102 ± 11 | 97.85 ± 0.92 | 95.6 ± 0.57 | 98.2 ± 2.3 | 98.5 ± 1.6
100 nM | 92.65 ± 0.78 | 99.7 ± 1.3 | 96.2 ± 3.5 | 98.3 ± 1.8 | 96.2 ± 3.3
1000 nM | 91.9 ± 8.6 | 110 ± 12 | 93.1 ± 5.7 | 97.9 ± 1.1 | 96.8 ± 0.57
10000 nM | 96.5 ± 1.7 | 94.7 ± 1.6 | 100 ± 4.2 | 100 ± 6.9 | 101 ± 1.1

Details | drug sensitivity score | relative viability EC50 [µM]
Caco-2 [11] | – | > 10
Caco-2 [16] | 0.85 ± 1.2 | –
Calu-3 [12] | – | > 10
Calu-3 [17] | 0 | –
HepG2 [13] | – | > 10
HepG2 [18] | 0 | –
U2OS [14] | – | > 10
U2OS [19] | 0 | –
Vero E6 [15] | – | > 10
Vero E6 [20] | 0 | –
